Assay results as given in patent publication US20200360391A1, “Medicinal Composition for Treating Intractable Heart Disease” (Osaka University, priority 2016, published 2020).
Where two headings read alike, the source gives them in different places.

Key:
[1] = cited from earlier work
rats [2] = experiment: Repeated oral administration toxicity study in rats (dose-setting basis); details: mg/kg twice per day, oral preparation
Excerpt: The dose-setting basis for the doses of the test substances used in pharmacological tests is as described below.

[3] = system: rat coronary artery complete ischemia model; experiment: Model of ischemia (MI) by rat coronary artery complete ligation (Tests 1 and 2): echocardiography, body weight; details: for value of change in E.F. compared with E.F. on Day 1 / value of change in F.S. compared with F.S. on Day 1: B-MS 100, C-MS 50, F-MS 30 mg/kg s.c. single injection
[4] = system: BLM-induced mouse pulmonary fibrosis model; details: cited from earlier work
rats [5] = details: cited from earlier work; for No-observed-adverse-effect level: rats; for Dose at which toxic findings were observed: duration per compound
[6] = system: spontaneous dilated cardiomyopathy (J2N-k) hamster model; experiment: Spontaneous dilated cardiomyopathy (J2N-k) hamster model, 8-week administration from 20 weeks of age (Tests 1-3): echocardiography, body weight; details: for Minimal effective dose (screening 2): mg/kg twice per day, oral preparation
Protocol: The doses of pharmaceutical products were determined based on the no-observed-adverse-effect levels in a long-term toxicity study using rats. δ-Glycan-deficient spontaneous dilated cardiomyopathy (J2N-k) male hamsters (Japan SLC, Inc.) were delivered at 18 weeks of age. After a 2-week quarantine/acclimation, echocardiography was performed.
Each of the pharmaceutical products (A to K and O) was individually administered twice daily (at an interval of 8 hours or more) by oral gavage, and echocardiography was performed after 4 and 8 weeks (before dissection). Differences from the value before the start of administration (at the time of grouping) (amount of change: Δ) in each group were examined, and the cardiac function (EF value, FS %, etc.) was compared with that in the vehicle group (Group 1). Moreover, the heart was removed […] after the start of administration, and electron microscopy and RNA protein measurement were performed. Specimens for immunopathology were also collected and evaluated.
Each pharmaceutical product was individually suspended in 0.5% CMC-Na (sodium carboxymethylcellulose; Wako Pure Chemical Industries, Ltd.) before use, and administered. […] To Group 1 (control), 0.5% CNC-Na (vehicle) was administered.
Each pharmaceutical product was individually suspended in 0.5% CMC-Na (sodium carboxymethylcellulose; Wako Pure Chemical Industries, Ltd.) before use, and administered. Test substance G was suspended in distilled water before use, and administered.
Reason the doses were set (assuming that the adult body weight was 60 kg, the same amounts as the maximum clinical doses were set) • 1) The clinical dose of C (ozagrel; OZ) was 200 mg twice per day. The dose was thus set to 3.3 mg/kg twice per day. • 2) The clinical dose of D (cilostazol; CS) was 100 mg twice per day. The dose was thus set to 1.7 mg/kg twice per day. • 3) The clinical dose of E (pirfenidone; PF) was 600 mg three times per day, i.e., 1800 mg/day in total. The dose was thus set to 15 mg/kg twice per day. • 4) The clinical dose of G (nintedanib sulfonate; OB) was 150 mg twice per day. The dose was thus set to 2.5 mg/kg twice per day. • 5) The clinical dose of P (carvedilol; CV) was 10 mg twice per day. The dose was thus set to 0.17 mg/kg twice per day. • 6) Preparation 2 (PLGA⋅MS preparation of camostat; B⋅MS): the clinical dose of active substance camostat was 200 mg three times per day, i.e., 600 mg/day in total; thus, intermittent subcutaneous administration at a daily dose of 10 mg/kg once every 4 weeks, twice in total was set. The dose was 1/28 of the total oral dose amount.
The dose volume in oral administration was 5 mL/kg (the amount of liquid to be administered to each animal was calculated based on the most recent body weight), and administered by oral gavage using a polypropylene disposable syringe and a rat stomach tube.
The administration period of each pharmaceutical product was 8 weeks.

[7] = system: spontaneous dilated cardiomyopathy J2N-k baby hamsters; experiment: J2N-k baby hamsters (Test 4): administration alone or in combination, echocardiography, body weight; assay type: in vivo, hamster; details: for % FS / EF (%) / value of change in E.F. compared with E.F. at 0 W / value of change in F.S. compared with F.S. at 0 W: Test 4, dose O 0.17, C 3.3, E 15, orally twice daily, mean ± S.D.
Protocol: δ-Glycan-deficient spontaneous dilated cardiomyopathy (J2N-k) male hamsters (Japan SLC, Inc.) were delivered at 4 weeks of age. After a 1-week quarantine/acclimation, echocardiography was performed. The hamsters were grouped by stratified random assignment based on the EF values and the body weights so that each administration group was equalized.
Each test substance was individually administered twice daily (at an interval of 8 hours or more) by oral gavage, and echocardiography was performed 4 and 8 weeks after the start of administration (before dissection). Differences from the value before the start of administration (at the time of grouping) (amount of change: A) in each group were examined, and the cardiac function (EF value, FS %, etc.) was compared with that in the vehicle group (Group 1).
The doses were set according to the dose-setting basis in Test 3, and similarly orally administered twice daily. Effects of administration of combinations of two or three of carvedilol, which is a β-blocker widely used clinically, and ozagrel and/or pirfenidone were examined.

[8] = MI Test 1, NOAEL doses, 7 Day, mean ± S.D.
[9] = MI Test 1, NOAEL doses, 14 Day, mean ± S.D.
[10] = MI Test 1, NOAEL doses, 29 Day, mean ± S.D.
[11] = Test 1, p.o. b.i.d., NOAEL-based dose
[12] = MI Test 2, 14 Day, B 150, G 5, I 30, C 10 mg/kg p.o. b.i.d., mean ± S.D.
[13] = MI Test 2, 29 Day, B 150, G 5, I 30, C 10 mg/kg p.o. b.i.d., mean ± S.D.
[14] = Test 2, p.o. b.i.d., NOAEL-based dose

SMILES: Cc1ccc(=O)n(-c2ccccc2)c1 [Compound E, Pirfenidone]
- Abdominal / stomach / gastric discomfort cases ([1]; human, in vivo): 14.0%
- Abnormal fluctuation in laboratory test values ([1]; human, in vivo): 45.3%
- Anorexia cases ([1]; human, in vivo): 23.0%
- Light-hypersensitivity cases ([1]; human, in vivo): 51.7%
- Nausea cases (cilostazol: nausea/vomiting) ([1]; human, in vivo): 12.1%
- γ-GTP elevation cases ([1]; human, in vivo): 20.0%
- Cases with side effects (including laboratory test value abnormality) ([1]; share of cases evaluated for safety): 87.9%
- Maximum no-observed-adverse-effect level (screening 1) (rats [2]): 50 mg/kg
- Action on left ventricular systolic function ([3]; MI Test 1, 28-day repeated oral administration b.i.d., NOAEL-based doses): suppression action on the deterioration of left ventricular systolic function
- Body weight ([3]; MI Test 1, NOAEL doses, 1 Day (grouping), mean ± S.D.): 232.0 ± 3.9 g
- % FS: value of change compared with the value on Day 1 [3, 8]: 0%
- Body weight [3, 8]: 236.7 ± 5.3 g
- EF: value of change compared with the value on Day 1 [3, 8]: -1%
- % FS: value of change compared with the value on Day 1 [3, 9]: -2%
- Body weight [3, 9]: 257.7 ± 10.1 g
- EF: value of change compared with the value on Day 1 [3, 9]: -4%
- Body weight ([3]; MI Test 1, NOAEL doses, 21 Day, mean ± S.D.): 272.4 ± 10.5 g
- % FS: value of change compared with the value on Day 1 [3, 10]: -4%
- Body weight [3, 10]: 287.5 ± 16.2 g
- EF: value of change compared with the value on Day 1 [3, 10]: -8%
- Minimal effective dose for antifibrosis ([4]; BLM-induced mouse pulmonary fibrosis model): 30 mg/kg/day
- No-observed-adverse-effect level (rats [5]; 1 month): 100 mg/kg
- Dose at which toxic findings were observed (rats [5]; repeated oral administration in rats): ≥ 100 mg/kg
- Body weight 0 W ([6]; Test 1, at grouping): 116.1 g
- LVIDd 4 W ([6]; Test 1, p.o. b.i.d.): 6.9 mm
- LVIDd 8 W ([6]; Test 1, p.o. b.i.d.): 7.3 mm
- LVIDs 4 W ([6]; Test 1, p.o. b.i.d.): 5.7 mm
- LVIDs 8 W ([6]; Test 1, p.o. b.i.d.): 6.1 mm
- Body weight 1 W [6, 11]: 116.3 g
- Body weight 2 W [6, 11]: 118.3 g
- Body weight 3 W [6, 11]: 119.5 g
- Body weight 4 W [6, 11]: 121.4 g
- LVIDs 8 W ([6]; Test 1, p.o. b.i.d., listed as pirfenidone): significantly lower
- Cardiac function (EF, FS %) actual measured value and/or amount of change compared with control, 8 W value ([6]; Test 3, clinical dose): significant cardiac function improvement effect
- Cardiac function (EF, FS %) actual measured value or change rate compared with control, 4 W value ([6]; Test 3, clinical dose): significant cardiac function improvement effect
- Cardiac function improvement effect ([6]; Test 3, clinical dose, summary): cardiac function improvement effect was observed
- Minimal effective dose (screening 2) [6]: 15 mg/kg
- Body weight 0 W ([7]; Test 4, at grouping): 71.7 g
- % FS ([7]; 0 W (start of administration)): 39.0 ± 3.0%
- EF (%) ([7]; 0 W (start of administration)): 77.1 ± 3.4%
- % FS ([7]; 4 W): 34.1 ± 1.9%
- EF (%) ([7]; 4 W): 71.3 ± 2.4%
- value of change in E.F. compared with E.F. at 0 W ([7]; 4 W): <−5.8 ± 1.9> %
- value of change in F.S. compared with F.S. at 0 W ([7]; 4 W): <−4.8 ± 1.7> %
- % FS ([7]; 8 W): 29.7 ± 1.8%
- EF (%) ([7]; 8 W): 65.2 ± 2.6%
- value of change in E.F. compared with E.F. at 0 W ([7]; 8 W): <−11.9 ± 2.8> %
- value of change in F.S. compared with F.S. at 0 W ([7]; 8 W): <−9.2 ± 2.4> %

SMILES: COC(=O)c1ccc2c(c1)NC(=O)/C2=C(\Nc1ccc(N(C)C(=O)CN2CCN(C)CC2)cc1)c1ccccc1 [Compound G, Nintedanib ethanesulfonate]
- Abdominal pain cases ([1]; human, in vivo): 10.2%
- Diarrhea cases ([1]; human, in vivo): 53.6%
- Elevated AST (GOT) and/or ALT (GPT) / liver enzyme cases ([1]; human, in vivo): 10.5%
- Nausea cases (cilostazol: nausea/vomiting) ([1]; human, in vivo): 19.1%
- Maximum no-observed-adverse-effect level (screening 1) (rats [2]): 5 mg/kg
- EF actual measured value and/or amount of change compared with control ([3]; MI Test 2, Day 14 and Day 29): significantly higher
- Values of cardiac function (EF, FS %) compared with control ([3]; MI Test 2, oral b.i.d. 4 weeks or single subcutaneous administration): significantly higher
- Body weight ([3]; MI Test 2, 1 Day, B 150, G 5, I 30, C 10 mg/kg p.o. b.i.d., B MS 100, C MS 50, I MS 30 mg/kg s.c. single injection, mean): 240.9 g
- Body weight ([3]; MI Test 2, 7 Day, B 150, G 5, I 30, C 10 mg/kg p.o. b.i.d., B MS 100, C MS 50, I MS 30 mg/kg s.c. single injection, mean): 248.1 g
- Body weight ([3]; MI Test 2, 14 Day, B 150, G 5, I 30, C 10 mg/kg p.o. b.i.d., B MS 100, C MS 50, I MS 30 mg/kg s.c. single injection, mean): 273.9 g
- value of change in E.F. compared with E.F. on Day 1 [3, 12]: <−6.2 ± 1.8> %
- value of change in F.S. compared with F.S. on Day 1 [3, 12]: <−3.4 ± 1.1> %
- Body weight ([3]; MI Test 2, 21 Day, B 150, G 5, I 30, C 10 mg/kg p.o. b.i.d., B MS 100, C MS 50, I MS 30 mg/kg s.c. single injection, mean): 290.5 g
- Body weight ([3]; MI Test 2, 29 Day, B 150, G 5, I 30, C 10 mg/kg p.o. b.i.d., B MS 100, C MS 50, I MS 30 mg/kg s.c. single injection, mean): 311.0 g
- value of change in E.F. compared with E.F. on Day 1 [3, 13]: <−11.0 ± 2.7> %
- value of change in F.S. compared with F.S. on Day 1 [3, 13]: <−5.8 ± 3.6> %
- Inhibitory effect on pulmonary fibrosis, 60 mg/kg versus 30 mg/kg ([4]; prophylactic administration Day 0 to Day 14, once daily oral gavage): slightly higher inhibitory effect on pulmonary fibrosis
- Dose with apparent effect on both inflammation and fibrosis ([4]; therapeutic administration Day 7 to Day 21, once daily oral gavage): 60 mg/kg
- No-observed-adverse-effect level (rats [5]; 6 months): 5 mg/kg
- Dose at which toxic findings were observed (rats [5]; repeated administration in rats): 20 mg/kg/day
- Body weight 0 W ([6]; Test 2, at grouping): 121.6 g
- LVIDd 4 W ([6]; Test 2, p.o. b.i.d.): 6.9 mm
- LVIDd 8 W ([6]; Test 2, p.o. b.i.d.): 7.2 mm
- LVIDs 4 W ([6]; Test 2, p.o. b.i.d.): 5.7 ± mm
- LVIDs 8 W ([6]; Test 2, p.o. b.i.d.): 6.1 ± mm
- % FS 4 W [6, 14]: significantly higher
- % FS value of change at 4 W compared with 0 W [6, 14]: significantly higher
- Body weight 1 W [6, 14]: 121.3 g
- Body weight 2 W [6, 14]: 122.0 g
- Body weight 3 W [6, 14]: 123.8 g
- Body weight 4 W [6, 14]: 126.1 g
- Body weight 5 W [6, 14]: 127.1 g
- Body weight 7 W [6, 14]: 129.2 g
- Body weight 8 W [6, 14]: 128.9 g
- EF 4 W [6, 14]: significantly higher
- LVIDs 8 W ([6]; Test 2, p.o. b.i.d., listed as nintedanib): significantly lower
- Cardiac function (EF, FS %) actual measured value and/or amount of change compared with control, 8 W value ([6]; Test 3, clinical dose): significant cardiac function improvement effect
- Minimal effective dose (screening 2) [6]: 2.5 mg/kg
